Measured values published in ChEMBL document CHEMBL2331255, “Carbonic anhydrase inhibitors: benzenesulfonamides incorporating cyanoacrylamide moieties are low nanomolar/subnanomolar inhibitors of the tumor-associated isoforms IX and XII” (Bioorg Med Chem, 2013).
pKi: −log10 of the molar value.

Columns and labels:
Carbonic anhydrase 9 = Carbonic anhydrase 9 (Homo sapiens, UniProt Q16790); test: Inhibition of human carbonic anhydrase 9 preincubated for 15 mins by CO2 hydration stopped-flow assay
Carbonic anhydrase 12 = Carbonic anhydrase 12 (Homo sapiens, UniProt O43570); test: Inhibition of human carbonic anhydrase 12 preincubated for 15 mins by CO2 hydration stopped-flow assay
Carbonic anhydrase 2 = Carbonic anhydrase 2 (Homo sapiens, UniProt P00918); test: Inhibition of human carbonic anhydrase 2 preincubated for 15 mins by CO2 hydration stopped-flow assay
Carbonic anhydrase 1 = Carbonic anhydrase 1 (Homo sapiens, UniProt P00915); test: Inhibition of human carbonic anhydrase 1 preincubated for 15 mins by CO2 hydration stopped-flow assay
Chain of Carbonic anhydrase 1 (P00915 whole entry): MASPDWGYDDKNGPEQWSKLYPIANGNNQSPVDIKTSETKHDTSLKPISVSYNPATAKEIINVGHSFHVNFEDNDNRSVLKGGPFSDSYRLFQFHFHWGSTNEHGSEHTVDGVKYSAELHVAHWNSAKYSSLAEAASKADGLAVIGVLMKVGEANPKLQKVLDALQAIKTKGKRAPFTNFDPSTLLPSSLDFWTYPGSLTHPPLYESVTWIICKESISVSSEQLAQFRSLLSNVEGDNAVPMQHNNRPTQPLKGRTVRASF

Chain of Carbonic anhydrase 12 (O43570 whole entry): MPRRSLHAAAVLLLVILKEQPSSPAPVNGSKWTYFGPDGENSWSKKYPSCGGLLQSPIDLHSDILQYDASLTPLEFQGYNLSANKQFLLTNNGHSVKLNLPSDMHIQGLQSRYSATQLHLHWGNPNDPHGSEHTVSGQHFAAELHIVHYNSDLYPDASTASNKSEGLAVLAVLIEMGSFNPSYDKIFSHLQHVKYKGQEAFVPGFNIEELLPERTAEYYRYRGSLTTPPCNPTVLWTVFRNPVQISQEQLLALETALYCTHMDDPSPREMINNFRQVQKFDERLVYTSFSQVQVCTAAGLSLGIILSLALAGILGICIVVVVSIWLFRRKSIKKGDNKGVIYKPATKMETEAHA

| pKi (Carbonic anhydrase 9) | Structure (SMILES) | further results |
| --- | --- | --- |
| 7.45 | N#C/C(=C\c1ccc(Cl)cc1Cl)C(=O)Nc1ccc(S(N)(=O)=O)cc1 |  |
| 7.69 | COc1cc(/C=C(\C#N)C(=O)Nc2ccc(S(N)(=O)=O)cc2)cc(OC)c1OC |  |
| 8.02 | N#C/C(=N\Nc1ccccc1)C(=O)Nc1ccc(S(N)(=O)=O)cc1 |  |
| 9.07 | COc1ccc(/C=C(\C#N)C(=O)Nc2ccc(S(N)(=O)=O)cc2)cc1 |  |
| 9.03 | N#C/C(=C\c1ccc([N+](=O)[O-])cc1)C(=O)Nc1ccc(S(N)(=O)=O)cc1 |  |
| 8.28 | N#CCC(=O)Nc1ccc(S(N)(=O)=O)cc1 |  |
| 9.48 | CC(=O)C1=NN(c2ccccc2)/C(=C(\C#N)C(=O)Nc2ccc(S(N)(=O)=O)cc2)S1 |  |
| 8.24 | N#C/C(C(=O)Nc1ccc(S(N)(=O)=O)cc1)=C(\S)Nc1ccccc1 |  |
| 7.67 | COc1ccc(/C=C(\C#N)C(=O)Nc2ccc(S(N)(=O)=O)cc2)cc1OC |  |
| 8.43 | N#C/C(=C\c1cccs1)C(=O)Nc1ccc(S(N)(=O)=O)cc1 |  |
| 7.89 | N=c1oc2ccccc2cc1C(=O)Nc1ccc(S(N)(=O)=O)cc1 |  |
| 8.37 | N#C/C(=C\c1ccco1)C(=O)Nc1ccc(S(N)(=O)=O)cc1 | pKi (Carbonic anhydrase 12): 8.20; pKi (Carbonic anhydrase 2): 8.26; pKi (Carbonic anhydrase 1): 8.21 |
| 9.17 | N#C/C(=C\c1ccc(O)cc1)C(=O)Nc1ccc(S(N)(=O)=O)cc1 |  |
| 7.49 | COc1ccccc1/C=C(\C#N)C(=O)Nc1ccc(S(N)(=O)=O)cc1 | pKi (Carbonic anhydrase 12): 9.22; pKi (Carbonic anhydrase 2): 8.16; pKi (Carbonic anhydrase 1): 7.15 |
| 9.02 | COc1cc(OC)c(OC)cc1/C=C(\C#N)C(=O)Nc1ccc(S(N)(=O)=O)cc1 |  |
| 8.27 | COc1cc(/C=C(\C#N)C(=O)Nc2ccc(S(N)(=O)=O)cc2)ccc1O |  |
| 9.19 | N#C/C(=C\c1ccc(O)c(O)c1)C(=O)Nc1ccc(S(N)(=O)=O)cc1 |  |
| 8.47 | CN(C)c1ccc(/C=C(\C#N)C(=O)Nc2ccc(S(N)(=O)=O)cc2)cc1 |  |

| Structure (SMILES) | pKi (Carbonic anhydrase 9) | further results |
| --- | --- | --- |
| N#C/C(=C\c1ccccc1Cl)C(=O)Nc1ccc(S(N)(=O)=O)cc1 | 8.05 |  |
| N#C/C(=C\C=C\c1ccccc1)C(=O)Nc1ccc(S(N)(=O)=O)cc1 | 8.31 |  |
